“And” between values parts separate entries of the source, which are not always exact repeats. Equal values may be shown once. Inconclusive results and toxic doses are left out. Rule as the data show it: active = T/C of 150% or more; inactive = T/C below 125%.
System: L1210 leukemia ip in BDF1 mice, survival T/C
Test: NCI In Vivo Anticancer Drug Screen. Data for tumor model L1210 Leukemia (intraperitoneal) in B6D2F1 (BDF1) mice
Conditions: endpoint: mean survival time, higher = longer survival
Method in brief: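 Read-out is survival time, reported as the treated-group measurement over the vehicle-control measurement.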

[1] = dose: 100.0 mg/kg/injection, schedule: Q04DX002 (ip), vehicle: Klucel (hydroxypropylcellulose) (HPC)
[2] = dose: 100.0 mg/kg/injection, schedule: Q01DX009 (ip), vehicle: Klucel (hydroxypropylcellulose) (HPC)
[3] = dose: 200.0 mg/kg/injection, schedule: Q01DX009 (ip), vehicle: Klucel (hydroxypropylcellulose) (HPC)
[4] = dose: 200.0 mg/kg/injection, schedule: Q04DX002 (ip), vehicle: Klucel (hydroxypropylcellulose) (HPC)
[5] = dose: 400.0 mg/kg/injection, schedule: Q01DX009 (ip), vehicle: Klucel (hydroxypropylcellulose) (HPC)
[6] = dose: 400.0 mg/kg/injection, schedule: Q04DX002 (ip), vehicle: Klucel (hydroxypropylcellulose) (HPC)
[7] = dose: 100.0 mg/kg/injection, schedule: Q01DX009 (ip), vehicle: saline with Tween-80
[8] = dose: 200.0 mg/kg/injection, schedule: Q01DX009 (ip), vehicle: saline with Tween-80
[9] = dose: 400.0 mg/kg/injection, schedule: Q01DX009 (ip), vehicle: saline with Tween-80
[10] = dose: 100.0 mg/kg/injection, schedule: Q04DX003 (ip), vehicle: saline with Tween-80
[11] = dose: 200.0 mg/kg/injection, schedule: Q04DX003 (ip), vehicle: saline with Tween-80
[12] = dose: 400.0 mg/kg/injection, schedule: Q04DX003 (ip), vehicle: saline with Tween-80
[13] = dose: 50.0 mg/kg/injection, schedule: Q04DX003 (ip), vehicle: saline with Tween-80
[14] = dose: 100.0 mg/kg/injection, schedule: Q01DX001 (ip), vehicle: carboxymethylcellulose (CMC)
[15] = dose: 200.0 mg/kg/injection, schedule: Q01DX001 (ip), vehicle: carboxymethylcellulose (CMC)
[16] = dose: 100.0 mg/kg/injection, schedule: Q04DX003 (ip), vehicle: Klucel (hydroxypropylcellulose) (HPC)
[17] = dose: 200.0 mg/kg/injection, schedule: Q04DX003 (ip), vehicle: Klucel (hydroxypropylcellulose) (HPC)
[18] = dose: 400.0 mg/kg/injection, schedule: Q04DX003 (ip), vehicle: Klucel (hydroxypropylcellulose) (HPC)
[19] = dose: 100.0 mg/kg/injection, schedule: Q01DX001 (ip), vehicle: saline
[20] = dose: 200.0 mg/kg/injection, schedule: Q01DX001 (ip), vehicle: saline
[21] = dose: 400.0 mg/kg/injection, schedule: Q01DX001 (ip), vehicle: saline

Measured: T/C

CN(C)Cc1cc(Cl)ccc1O
inactive: [1] 100 % of control

O=C(Nc1cc(C(F)(F)F)ccc1Cl)OCC(F)(F)F
inactive: [2] 97 % of control and 104 % of control | [1] 108 % of control and 91 % of control | [3] 105 % of control and 112 % of control | [4] 103 % of control and 104 % of control | [5] 94 % of control and 108 % of control | [6] 103 % of control and 107 % of control

O=C(O)COC1CCC(Cl)CC1 (centres undefined)
inactive: [7] 106 % of control | dose: 100.0 mg/kg/injection, schedule: Q04DX003 (ip), vehicle: acetone 101 % of control | [8] 94 % of control | dose: 200.0 mg/kg/injection, schedule: Q04DX003 (ip), vehicle: acetone 95 % of control | [9] 96 % of control | dose: 400.0 mg/kg/injection, schedule: Q04DX003 (ip), vehicle: acetone 91 % of control

O=C(c1ccc(C(=O)N2CC2)cc1)N1CC1
inactive: dose: 5.0 mg/kg/injection, schedule: Q04DX003 (ip), vehicle: carboxymethylcellulose (CMC) 106 % of control | dose: 10.0 mg/kg/injection, schedule: Q04DX003 (ip), vehicle: carboxymethylcellulose (CMC) 97 % of control | dose: 20.0 mg/kg/injection, schedule: Q01DX001 (ip), vehicle: carboxymethylcellulose (CMC) 103 % of control | dose: 20.0 mg/kg/injection, schedule: Q04DX003 (ip), vehicle: carboxymethylcellulose (CMC) 94 % of control

CCCC(NC(=O)C(C)NC(=O)OCc1ccccc1)C(=O)OC (centres undefined)
inactive: [10] 93 % of control | [11] 93 % of control | [12] 86 % of control

CCCCCCCC(=O)N1CCOCC1
inactive: [13] 96 % of control

Cc1cc(=O)[nH]c(N/N=C/c2cc(Cl)ccc2O)n1
inactive: dose: 50.0 mg/kg/injection, schedule: Q01DX009 (ip), vehicle: saline with Tween-80 87 % of control

O=C1C2(Cl)C3(Cl)C4(Cl)C(Cl)(Cl)C5(Cl)[C@]3(Cl)C1(Cl)[C@]5(Cl)C24Cl (some centres undefined)
inactive: dose: 75.0 mg/kg/injection, schedule: Q01DX001 (ip), vehicle: carboxymethylcellulose (CMC) 102 % of control | dose: 150.0 mg/kg/injection, schedule: Q01DX001 (ip), vehicle: carboxymethylcellulose (CMC) 96 % of control

CC(C)(C)c1cc(C(C)(C)[N+](C)(C)C)cc(C(C)(C)C)n1
inactive: dose: 50.0 mg/kg/injection, schedule: Q01DX001 (ip), vehicle: Klucel (hydroxypropylcellulose) (HPC) 102 % of control | dose: 100.0 mg/kg/injection, schedule: Q01DX001 (ip), vehicle: Klucel (hydroxypropylcellulose) (HPC) 90 % of control

CCCCCCCCCCCC1=NCCN1
inactive: dose: 6.25 mg/kg/injection, schedule: Q01DX009 (ip), vehicle: saline 91 % of control | dose: 12.5 mg/kg/injection, schedule: Q01DX009 (ip), vehicle: saline 91 % of control | dose: 12.5 mg/kg/injection, schedule: Q04DX003 (ip), vehicle: saline 89 % of control | dose: 25.0 mg/kg/injection, schedule: Q01DX009 (ip), vehicle: saline with Tween-80 93 % of control | dose: 25.0 mg/kg/injection, schedule: Q01DX009 (ip), vehicle: saline 93 % of control | dose: 25.0 mg/kg/injection, schedule: Q04DX003 (ip), vehicle: saline with Tween-80 97 % of control | dose: 25.0 mg/kg/injection, schedule: Q04DX003 (ip), vehicle: saline 94 % of control | dose: 50.0 mg/kg/injection, schedule: Q01DX009 (ip), vehicle: saline 91 % of control | [13] 97 % of control | dose: 50.0 mg/kg/injection, schedule: Q04DX003 (ip), vehicle: saline 94 % of control | [2] 100 % of control | [10] 100 % of control | [3] 96 % of control | [5] 88 % of control

COc1ccc(COC2C(CO)OC(n3ccc(N)nc3=O)C2O)cc1 (centres undefined)
inactive: dose: 100.0 mg/kg/injection, schedule: Q01DX005 (ip), vehicle: saline 100 % of control | dose: 200.0 mg/kg/injection, schedule: Q01DX005 (ip), vehicle: saline 94 % of control

O=C1O/C(=C2\OCc3ccccc32)c2ccccc21
inactive: dose: 50.0 mg/kg/injection, schedule: Q01DX001 (ip), vehicle: carboxymethylcellulose (CMC) 91 % of control | [14] 107 % of control | [15] 100 % of control | dose: 400.0 mg/kg/injection, schedule: Q01DX001 (ip), vehicle: carboxymethylcellulose (CMC) 91 % of control

CSCSCC(CO)NS(=O)(=O)c1ccc(C)cc1 (centres undefined)
inactive: [7] 107 % of control | [10] 103 % of control | [8] 109 % of control | [11] 97 % of control | [9] 98 % of control | [12] 102 % of control

CCCCCCCCC1CCC(N)CC1 (centres undefined)
inactive: [2] 95 % of control | [16] 95 % of control | [3] 93 % of control | [17] 101 % of control | [18] 98 % of control

O=CNCCNC=O
inactive: dose: 100.0 mg/kg/injection, schedule: Q01DX009 (ip), vehicle: saline 102 % of control | dose: 200.0 mg/kg/injection, schedule: Q01DX009 (ip), vehicle: saline 104 % of control | dose: 400.0 mg/kg/injection, schedule: Q01DX009 (ip), vehicle: saline 98 % of control

C=CO
inactive: [19] 103 % of control | [20] 95 % of control | [21] 89 % of control

Oc1ccc(Nc2ccnc3cc(Cl)ccc23)cc1CN(CCCl)CCCl
inactive: dose: 5.0 mg/kg/injection, schedule: Q01DX001 (ip), vehicle: saline 109 % of control | dose: 10.0 mg/kg/injection, schedule: Q01DX001 (ip), vehicle: saline 109 % of control

Cc1ccccc1NC=O
inactive: [7] 101 % of control | [10] 87 % of control | [8] 101 % of control | [11] 91 % of control | [12] 100 % of control

ClC(Cl)=C(c1ccc(Cl)cc1)c1ccc(Cl)cc1
inactive: [19] 101 % of control | dose: 100.0 mg/kg/injection, schedule: Q04DX002 (ip), vehicle: gum acacia 114 % of control | [20] 110 % of control | dose: 200.0 mg/kg/injection, schedule: Q04DX002 (ip), vehicle: gum acacia 91 % of control | [21] 98 % of control | dose: 400.0 mg/kg/injection, schedule: Q04DX002 (ip), vehicle: gum acacia 100 % of control

Nc1ccc(C(=O)Oc2ccccc2)c(O)c1
inactive: [16] 95 % of control | [17] 93 % of control | [18] 95 % of control

Cc1ccc(C)c(NC(=O)c2ccc(C(=O)O)cc2C(=O)O)c1
inactive: [2] 95 % of control | [1] 98 % of control | [3] 100 % of control | [4] 98 % of control | [5] 97 % of control | [6] 95 % of control

c1ccc2c(c1)OB(C1CCCC1)O2
inactive: [16] 95 % of control | [17] 93 % of control | [18] 100 % of control

O=C(CN1CCOCC1)Nc1ccc(S(=O)(=O)c2ccc([N+](=O)[O-])cc2)cc1
inactive: dose: 75.0 mg/kg/injection, schedule: Q01DX001 (ip), vehicle: acetone 93 % of control | dose: 150.0 mg/kg/injection, schedule: Q01DX001 (ip), vehicle: acetone 93 % of control

Cc1cc(N(CCCl)CCCl)ccc1C=Nc1ccc(C(=O)O)c(O)c1
inactive: [14] 111 % of control | [15] 95 % of control

O=C(NO)N/N=C/c1ccccc1
inactive: dose: 100.0 mg/kg/injection, schedule: Q01DX001 (ip), vehicle: other 104 % of control | [7] 104 % of control | dose: 100.0 mg/kg/injection, schedule: Q04DX003 (ip), vehicle: other 113 % of control | dose: 200.0 mg/kg/injection, schedule: Q01DX001 (ip), vehicle: other 98 % of control | [8] 107 % of control | dose: 200.0 mg/kg/injection, schedule: Q04DX003 (ip), vehicle: other 95 % of control | dose: 400.0 mg/kg/injection, schedule: Q01DX001 (ip), vehicle: other 98 % of control | [9] 110 % of control | dose: 400.0 mg/kg/injection, schedule: Q04DX003 (ip), vehicle: other 93 % of control

O=C(Cl)c1ccccc1/C=C/c1ccccc1
inactive: [7] 89 % of control | [8] 89 % of control | [9] 93 % of control
